According to a compilation of properties of binary mixtures (doi:10.1016/j.molliq.2017.08.019):

Experiment: xn = mol fraction of the nth substance listed
Conditions: 100 kPa

CCCC[n+]1ccn(C)c1.F[P-](F)(F)(F)(F)F + CCCC[n+]1ccn(C)c1.O=S(=O)([O-])C(F)(F)F
x1 = 1
Conditions | viscosity [mPa·s]
293.15 K | 337
298.15 K | 257
303.15 K | 197.6
308.15 K | 148.3
313.15 K | 112
323.15 K | 71
328.15 K | 59.7

CCCC[n+]1ccn(C)c1.O=S(=O)([O-])C(F)(F)F + CCCC[n+]1ccn(C)c1.F[P-](F)(F)(F)(F)F
viscosity [mPa·s]
Conditions | 293.15 K | 298.15 K | 303.15 K | 308.15 K | 313.15 K | 318.15 K | 323.15 K | 328.15 K
x2 = 0 | 90.8 | 76 | – | 51.7 | 42.11 | 35.18 | 30.02 | 26.6
x2 = 0.0005 | 90.9 | 76 | – | 51.8 | – | 35.2 | – | 26.61
x2 = 0.0006 | 90.9 | 76.1 | 63.6 | 51.8 | – | – | – | 26.61
x2 = 0.0007 | 90.9 | – | 63.6 | 51.8 | 42.14 | 35.2 | 30.03 | 26.61
x2 = 0.0009 | 90.9 | 76.1 | 63.7 | 51.8 | – | 35.21 | 30.04 | 26.61
x2 = 0.0018 | 91 | – | 63.7 | 51.8 | 42.17 | – | 30.05 | 26.62
x2 = 0.0061 | – | 76.5 | 64 | 52 | 42.34 | 35.36 | 30.15 | 26.71
x2 = 0.01 | 91.9 | 76.9 | 64.3 | 52.2 | 42.5 | 35.49 | 30.24 | 26.79
x2 = 0.0501 | 96.7 | 80.5 | 67.1 | 54.4 | 44.11 | 36.73 | 31.17 | 27.59
x2 = 0.0806 | 100.4 | – | – | 56.1 | 45.35 | 37.69 | 32.03 | 28.27
x2 = 0.1 | 102.9 | 85.3 | – | 57.1 | 46.2 | 38.32 | 32.53 | 28.7
x2 = 0.15 | – | 90.4 | 74.7 | – | 48.4 | – | 33.86 | –
x2 = 0.1999 | – | 95.8 | 78.8 | – | – | – | 35.27 | –
x2 = 0.3 | 132.1 | 107.5 | 87.8 | 69.7 | 55.5 | – | – | 33.41
x2 = 0.3999 | 149.7 | 120.7 | 97.7 | 77 | 60.9 | 49.6 | 41.49 | 36.06
x2 = 0.5002 | 169.7 | 135.6 | 108.9 | 85.2 | – | 54.1 | 45 | 38.95
x2 = 0.6 | 192.3 | 152.2 | 121.3 | 94.1 | 73.3 | 58.9 | 48.8 | 42.02
x2 = 0.7 | – | 170.9 | 135.1 | 104 | 80.4 | 64.2 | 52.9 | 45.35
x2 = 0.7995 | 247 | 191.8 | 150.3 | 114.8 | – | 70 | 57.4 | 48.9
x2 = 0.8997 | 280 | 215 | 167.5 | 126.9 | 96.7 | – | – | 52.8
